From ChEMBL document CHEMBL1128661, “Vasorelaxant activity of 2-fluoroalkyl-6-nitro-2H-1-benzopyran-4-carbothioamide and -carboxamide K+ channel openers” (Bioorg Med Chem Lett, 1995)

How the values were obtained:
Rattus norvegicus [1] = organism: Rattus norvegicus; assay: Intrinsic vasorelaxant activity tested in rat aorta; assay type: functional
Rattus norvegicus [2] = organism: Rattus norvegicus; assay: Negative logarithm of the molar concentration required to relax rat aorta precontracted with 30 mM KCI by 50% of IA; assay type: functional, organism-based

| Compound | EC50 (Rattus norvegicus [2]) [nM] | Intrinsic activity (Rattus norvegicus [1]) [%] |
| --- | --- | --- |
| CC1(C)C=C(C(=O)NCCC#N)c2cc([N+](=O)[O-])ccc2O1 | 2.82 | 73.1 |
| CNC(=O)C1=CC(C)(C)Oc2ccc([N+](=O)[O-])cc21 | – | 61 |
| N#CCC/N=C(\S)C1=CC(CF)(CF)Oc2ccc([N+](=O)[O-])cc21 | 0.141 | 72.5 |
| C/N=C(/S)C1=CC(C)(C)Oc2ccc([N+](=O)[O-])cc21 | – | 63.5 |
| C/N=C(/S)C1=CC(C)(CF)Oc2ccc([N+](=O)[O-])cc21 (configuration not stated) | 1.62 | 77.1 |
| CC1(CF)C=C(C(=O)NCCC#N)c2cc([N+](=O)[O-])ccc2O1 (configuration not stated) | 3.98 | 71 |
| C/N=C(/S)C1=CC(CF)(CF)Oc2ccc([N+](=O)[O-])cc21 | 0.479 | 74.5 |
| CC1(CF)C=C(/C(S)=N\CCC#N)c2cc([N+](=O)[O-])ccc2O1 (configuration not stated) | 1.86 | 59.6 |
| N#CCCNC(=O)C1=CC(CF)(CF)Oc2ccc([N+](=O)[O-])cc21 | 2.24 | 72.3 |
| CNC(=O)C1=CC(C)(C(F)(F)F)Oc2ccc([N+](=O)[O-])cc21 (configuration not stated) | 2.69 | 61.7 |
| CC1(C(F)(F)F)C=C(C(=O)NCCC#N)c2cc([N+](=O)[O-])ccc2O1 (configuration not stated) | 0.692 | 70.6 |
| CC1(C)Oc2ccc(C#N)cc2[C@@H](N2CCCC2=O)[C@@H]1O [CROMAKALIM] | – | 74.7 |
| CC(N/C(=N\C#N)Nc1ccncc1)C(C)(C)C (configuration not stated) [PINACIDIL ANHYDROUS] | – | 91.9 |

Further molecules by falling EC50 (Rattus norvegicus [2]), results first:

| EC50 (Rattus norvegicus [2]) [nM] | Compound | Intrinsic activity (Rattus norvegicus [1]) [%] |
| --- | --- | --- |
| 8.91 | CNC(=O)C1=CC(C)(CF)Oc2ccc([N+](=O)[O-])cc21 (configuration not stated) | 66 |
| 5.13 | CNC(=O)C1=CC(CF)(CF)Oc2ccc([N+](=O)[O-])cc21 | 70.7 |
| 1.48 | CNC(=O)C1=CC(C(F)(F)F)(C(F)(F)F)Oc2ccc([N+](=O)[O-])cc21 | 57.9 |
| 0.631 | C/N=C(/S)C1=CC(C(F)(F)F)(C(F)(F)F)Oc2ccc([N+](=O)[O-])cc21 | 68 |
| 0.49 | N#CCCNC(=O)C1=CC(C(F)(F)F)(C(F)(F)F)Oc2ccc([N+](=O)[O-])cc21 | 64.1 |
| 0.437 | N#CCC/N=C(/S)C1=CC(C(F)(F)F)(C(F)(F)F)Oc2ccc([N+](=O)[O-])cc21 | 74.8 |
| 0.372 | CC1(C)C=C(/C(S)=N\CCC#N)c2cc([N+](=O)[O-])ccc2O1 | 78.5 |
| 0.363 | CC1(C(F)(F)F)C=C(/C(S)=N\CCC#N)c2cc([N+](=O)[O-])ccc2O1 (configuration not stated) | 69.7 |
| 0.302 | C/N=C(/S)C1=CC(C)(C(F)(F)F)Oc2ccc([N+](=O)[O-])cc21 (configuration not stated) | 62.5 |
| 0.0251 | C/N=C(/S)C1=CC2(CCC2)Oc2ccc([N+](=O)[O-])cc21 | – |
| 0.0209 | C/N=C(/S)C1=CC2(CCCC2)Oc2ccc([N+](=O)[O-])cc21 | – |
